# Laboratory results: the supplement of paper PMC10307832
# Legend:
# Assay in all cases: relative viability (nuclei count vs DMSO), 5 days (fraction); higher = more cells survive
# [1] = compound: C=CC(=O)N1CCC[C@@H](n2nc(-c3ccc(Oc4ccccc4)cc3)c3c(N)ncnc32)C1 [Ibrutinib] + C[C@@H](Oc1cc(-c2cnn(C3CCNCC3)c2)cnc1N)c1c(Cl)ccc(F)c1Cl [Crizotinib] (partner 1 µM)
# Procedure, shortened: (§1)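 After 5 days of treatment, lung cancer cells in 1536-well plates were fixed and stained in a single step (final 0.05% Triton X-100, 1% formaldehyde, 1 ug/ml Hoechst) and their nuclei counted on 4× images. Treatment had been applied by pin tool the day after seeding as one drug alone or as a fixed anchor-drug dose with five library-drug doses (not always all listed) in √10 steps. Relative viability is the nuclei count of treated wells divided by that of vehicle wells, and values are medians of duplicate plates.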
# [2] = compound: C=CC(=O)Nc1cc(-n2c(=O)ccc3cnc4ccc(-c5ccc(NS(C)(=O)=O)cc5)cc4c32)ccc1C [BMX-IN-1] + O=C(c1cc(Cc2n[nH]c(=O)c3ccccc23)ccc1F)N1CCN(C(=O)C2CC2)CC1 [Olaparib] (partner 8 µM)
# Procedure, shortened: as §1
# [3] = compound: C=CC(=O)Nc1cc(-n2c(=O)ccc3cnc4ccc(-c5ccc(NS(C)(=O)=O)cc5)cc4c32)ccc1C [BMX-IN-1] + CS(=O)(=O)CCNCc1ccc(-c2ccc3ncnc(Nc4ccc(OCc5cccc(F)c5)c(Cl)c4)c3c2)o1 [Lapatinib] (partner 2 µM)
# Procedure, shortened: as §1
# [4] = compound: C=CC(=O)N1CCC[C@@H](n2nc(-c3ccc(Oc4ccccc4)cc3)c3c(N)ncnc32)C1 [Ibrutinib] + CS(=O)(=O)N1CCN(Cc2cc3nc(-c4cccc5[nH]ncc45)nc(N4CCOCC4)c3s2)CC1 [Pictilisib] (partner 1 µM)
# Procedure, shortened: as §1
Cell Line,relative viability ([1]; first compound 0.005 µM),relative viability ([1]; first compound 0.01581 µM),relative viability ([1]; first compound 0.05 µM),relative viability ([1]; first compound 0.1581 µM),relative viability ([1]; first compound 0.5 µM),relative viability ([2]; first compound 0.02 µM),relative viability ([2]; first compound 0.2 µM),relative viability ([2]; first compound 0.6325 µM),relative viability ([2]; first compound 2 µM),relative viability ([3]; first compound 0.02 µM),relative viability ([3]; first compound 0.2 µM),relative viability ([3]; first compound 0.6325 µM),relative viability ([3]; first compound 2 µM),relative viability ([4]; first compound 0.005 µM),relative viability ([4]; first compound 0.01581 µM),relative viability ([4]; first compound 0.05 µM),relative viability ([4]; first compound 0.1581 µM),relative viability ([4]; first compound 0.5 µM)
NCI-H2228,0.4,0.359,0.36,0.569,0.359,0.768,0.835,0.667,0.784,1.89,1.09,1.52,0.929,0.316,0.486,0.276,0.433,0.386
EPLC-272H,,0.806,0.809,1.06,0.522,0.823,0.834,0.509,0.677,1.03,0.929,1.14,1.08,,0.291,0.299,0.194,0.267
SK-LU-1,0.869,0.741,1.04,1.1,0.859,0.491,0.403,0.516,0.506,1.3,0.779,0.938,0.771,0.381,0.509,0.542,0.55,0.549
PC-3 [JPC-3],0.988,0.907,0.975,0.987,0.6,1.25,1.46,1.06,1.1,0.533,0.466,0.47,0.476,0.621,0.685,0.686,0.531,0.528
ChaGo-K-1,1.18,1.05,1.16,,1.06,0.435,0.443,0.416,0.417,,,,,0.356,0.83,0.592,,0.956
NCI-H3122,0.237,0.263,0.254,0.253,0.244,0.678,0.781,0.672,0.64,1.1,1.08,0.988,1.05,0.563,0.61,0.69,0.375,0.533
NCI-H1703,,,0.839,0.934,0.729,0.486,0.368,0.284,0.336,1.69,1.24,1.31,0.677,,0.233,0.205,0.241,0.222
NCI-H2126,,1,0.994,1.06,0.936,0.979,0.897,1.03,0.875,0.899,0.768,0.827,0.784,,0.469,0.454,0.399,0.43
NCI-H1993,0.843,0.744,0.704,,0.713,1.21,1.15,0.913,1.06,0.68,0.754,,0.815,0.777,0.7,0.139,,0.871
NCI-H1793,,,,,,1.1,1.01,1.05,0.92,0.755,1.22,0.72,0.872,,0.466,0.323,0.357,0.274
NCI-H441,0.669,0.842,0.919,0.707,0.881,0.52,0.658,0.619,0.591,,,,,0.586,0.551,0.619,0.435,0.449
H3255,0.873,0.81,0.729,0.874,0.429,0.584,0.588,0.548,0.628,0.207,0.206,0.207,0.222,0.389,0.397,0.263,0.415,0.14
NCI-H2087,0.849,0.949,1.04,0.872,0.862,0.627,0.62,0.556,0.643,1.02,1.29,1.36,1.06,0.686,0.878,0.973,0.339,0.862
NCI-H661,,,1.09,0.904,0.873,0.963,0.758,0.81,0.738,0.564,0.458,0.452,0.517,0.302,0.413,0.308,0.358,0.284
COR-L 105,0.654,0.846,0.472,0.9,0.235,0.735,0.689,0.791,0.641,0.327,0.33,0.376,0.371,0.316,0.418,0.488,0.341,0.325
BEN,0.952,0.962,0.803,0.67,0.943,1.26,1.02,1.05,1.15,0.829,0.891,0.729,0.724,0.347,0.535,0.518,0.5,0.536
NCI-H2023,0.55,0.637,0.423,0.603,0.356,0.516,0.655,0.47,0.489,1.19,0.954,1.19,0.855,0.165,0.308,0.207,0.25,0.206
NCI-H2342,,,,,,0.44,0.446,0.473,0.43,,,,,,,,,
NCI-H522,,,,,,0.656,0.689,0.66,0.601,,,,,,,,,
NCI-H1563,0.815,0.874,0.803,0.875,0.8,,,,,0.837,0.86,0.903,0.824,0.663,0.635,0.677,0.607,0.602
NCI-H1395,,,,,,0.433,0.45,0.452,0.45,1.03,0.996,1.12,0.951,0.611,0.555,0.538,0.562,0.655
